For one data set, the target named is T1, GST-JAK2 (Homo sapiens, UniProt O60674).
T1 construct: the amino acid domain ASP751-VAL1129 of the JAK2 protein
The experiment in a line: JAK2 kinase assay of the general description (alternative method, flash plate). The data set is classed as biochemical. The settings on record: 1.0 μM ATP, read-out: IC50 with test in general description (named “alternative method to that given in the examples”) (“flash plate”). The protocol: Baculovirus including the amino acid domain ASP751-VAL1129 of the JAK2 protein is obtainable by ProQinase, Freiburg, Germany. The virus is scaled up as following: Virus containing media is collected from the transfected cell culture and used for infection to increase its titer. Virus containing media obtained after two rounds of infection is used for large-scale protein expression. For large-scale protein expression 100 cm^2 round tissue culture plates are seeded with 5×10^7 cells/plate and infected with 1 mL of virus-containing media (approx. 5 MOIs). After 3 days the cells are scraped off the plate and centrifuged at 500 rpm for 5 min. Cell pellets from 10-20, 100 cm^2 plates, are re-suspended in 50 mL of ice-cold lysis buffer (25 mMTris-HCl, pH7.5, 2 mMEDTA, 1% NP-40, 1 mM DTT, 1 mMP MSF). The cells are stirred on ice for 15 min and then centrifuged at 5000 rpms for 20 min. The protein is purified by loading the centrifuged cell lysate onto a 2 mL glutathione-sepharose column and washed three times with 10 mL of 25 mM Tris-HCl, pH 7.5, 2 mM EDTA, 1 mM DTT, 200 mM NaCl. The GST-tagged proteins are then eluted by 10 applications (1 mL each) of 25 mM Tris-HCl, pH 7.5, 10 mM reduced-glutathione, 100 mM NaCl, 1 mM DTT, 10% Glycerol and stored at −70° C.
Cancer Cell; 5: 231-239]. The test compound is dissolved in DMSO (10 mM) and stored at −20° C. Serial dilutions are freshly made in DMSO and are […] concentrated than test solutions (“pre-dilution plates”). They are further diluted with pure water to yield “master plates” containing 3 times concentrated test solutions in 3% DMSO. The final volume of the assay is 30 μL containing 10 μL of test solution (1% DMSO), 10 μL assay mix including the assay components described by Garcia-Echeverria (2004) and in the following section as well as 10 μL enzyme. The pipetting steps can be programmed to be performed either on the MultiPROBE Iix, MultiPROBE IILx or HamiltonSTAR robots in the 96 well format.
The protein kinase assays are carried as described in details by Garcia-Echeverria (see above). The assay for JAK2 is carried out in 96-well plates at ambient temperature for 10 min (filter-biding method) or 30 min (flash plates) in a finial volume of 30 μL including the following components: 300 ng of GST-JAK2, 20 mM Tris-HCl, pH 7.5, 1.0 mM MnCl2, 10 mM MgCl2, 1 mM DTT, 3 μg/mL poly(Glu, Tyr) 4:1, 1% DMSO and 1.0 μM ATP (γ-[^33P]-ATP 0.1 μCi); The assays are terminated by the addition of 20 μl of 125 mM EDTA. The capturing of the phosphorylated peptides by the filter-binding method is performed as following: 40 μL of the reaction mixture are transferred onto Immobilon-PVDF membranes previously soaked for 5 min with methanol, rinsed with water, then soaked for 5 min with 0.5% H3PO4 and mounted on vacuum manifold with disconnected vacuum source. After spotting all samples, vacuum is connected and each well rinsed with 200 μl 0.5% H3PO4. Free membranes are removed and washed 4× on a shaker with 1.0% H3PO4, once with ethanol. Membranes are counted after drying at ambient temperature, mounting in Packard TopCount 96-well frame, and addition of 10 μl/well of Microscint. The plates are eventually sealed and counted in a microplate scintillation counter (TopCount NXT, TopCount NXT HTS, PerkinElmer, Brussels, Belgium).
The assays for the flash plate method is carried out in a total volume of 30 μL at RT in conventional 96-well flash plates. The reaction is stopped after 30 min by the addition of 20 μL of 125 mM EDTA The assay plates are then washed three times with PBS and dried at room temperature. The plates are sealed and counted in a microplate scintillation counter (TopCount NXT, TopCount NXT HTS). IC50 values are calculated by linear regression analysis of the percentage inhibition of the compound either in duplicate, at four concentrations (usually 0.01, 0.1, 1 and 10 μM) or as 8 single point IC50 starting at 10 μM following by 1:3 dilutions.

The target in another data set is T2, GST-JAK2(808-1132) (Homo sapiens, UniProt O60674).
T2 construct: GST-JAK2(808-1132) is purchased from Invitrogen; purchased Invitrogen (Carlsbad, USA) #4288
T2 sequence (O60674 808-1132): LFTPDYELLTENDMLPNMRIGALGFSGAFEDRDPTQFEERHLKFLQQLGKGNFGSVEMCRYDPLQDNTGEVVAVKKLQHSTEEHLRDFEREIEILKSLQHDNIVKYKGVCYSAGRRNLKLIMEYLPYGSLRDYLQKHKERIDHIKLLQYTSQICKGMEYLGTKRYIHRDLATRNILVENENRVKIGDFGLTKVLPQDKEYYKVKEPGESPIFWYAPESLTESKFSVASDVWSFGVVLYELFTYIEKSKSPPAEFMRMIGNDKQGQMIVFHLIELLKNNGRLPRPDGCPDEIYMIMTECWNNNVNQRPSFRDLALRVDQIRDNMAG
The experiment in a line: EPK JAK/TYK-kinase family profiling assay (Caliper mobility shift), JAK2. As to conditions: Caliper mobility shift assay of Example 187, 20 μM ATP, read-out: IC50 with Test in present Example. The data set is classed as biochemical. A digest of the protocol:
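Caliper mobility-shift assay with the GST-tagged kinase domain and a fluorescently labeled peptide substrate plus ATP, run 60 min at 30° C and then stopped with EDTA buffer. Turnover was taken as the substrate/product ratio. Compounds were tested at eight final concentrations from 10 to 0.003 μM.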

T1 sequence (O60674 751-1129): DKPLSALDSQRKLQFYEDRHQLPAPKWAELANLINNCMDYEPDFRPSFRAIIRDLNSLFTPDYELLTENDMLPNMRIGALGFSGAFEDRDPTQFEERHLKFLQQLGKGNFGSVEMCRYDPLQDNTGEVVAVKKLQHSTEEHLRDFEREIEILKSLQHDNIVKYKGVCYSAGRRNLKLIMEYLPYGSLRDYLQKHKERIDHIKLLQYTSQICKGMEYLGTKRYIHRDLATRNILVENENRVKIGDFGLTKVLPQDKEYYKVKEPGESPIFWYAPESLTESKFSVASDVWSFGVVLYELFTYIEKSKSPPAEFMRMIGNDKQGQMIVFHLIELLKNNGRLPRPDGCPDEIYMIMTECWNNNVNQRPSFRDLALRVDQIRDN

`COc1cc(Nc2nc3cccc(-c4ccc(S(C)(=O)=O)cc4)c3o2)cc(OC)c1OC` [Example 17, [7-(4-Methanesulfonyl-phenyl)-benzooxazol-2-yl]-(3,4,5-trimethoxy-phenyl)-amine] returned a melting point of 205 to 207 °C. The IC50 at GST-JAK2 stood at 40 nM. Moreover, at GST-JAK2(808-1132), the IC50 is 12 nM.
In the case of `Nc1ccc(-c2cccc3nc(Nc4ccc(N5CCOCC5)cc4)oc23)cc1` [Example 40, [7-(4-Aminophenyl)-benzooxazol-2-yl]-(4-morpholin-4-yl-phenyl)-amine], the melting point was 241 to 243 °C. In addition, on GST-JAK2, the IC50 worked out at 1100 nM.
In the same order, the values of `COc1cc(Nc2nc3cccc(-c4ccc(C(=O)N(C)C)cc4)c3o2)cc(OC)c1OC` [Example 25, N,N-Dimethyl-4-[2-(3,4,5-trimethoxy-phenylamino)-benzooxazol-7-yl]-benzamide] are above 280 °C and 140 nM.
In the same order, the values of `COc1cc(Nc2nc3cccc(-c4ccc5ncccc5c4)c3o2)cc(OC)c1OC` [Example 15, (7-Quinolin-6-yl-benzooxazol-2-yl)-(3,4,5-trimethoxy-phenyl)-amine] are 187 to 190 °C and 570 nM.
In the same order, the values of `COc1cc(Nc2nc3cccc(-c4cccc(NC(C)=O)c4)c3o2)cc(OC)c1OC` [Example 28, N-{3-[2-(3,4,5-Trimethoxy-phenylamino)-benzooxazol-7-yl]-phenyl}-acetamide] are 170 to 172 °C and 310 nM.
In turn, `COc1cc(Nc2nc3cccc(-c4ccc(C#N)cc4)c3o2)cc(OC)c1OC` [Example 19, 4-[2-(3,4,5-Trimethoxy-phenylamino)-benzooxazol-7-yl]-benzonitrile] displayed a melting point of 222 to 223 °C. Besides, on GST-JAK2, the IC50 was 170 nM.
In the same order, the values of `COc1cccc(-c2cccc3nc(Nc4cc(OC)c(OC)c(OC)c4)oc23)c1` [Example 4, [7-(3-Methoxy-phenyl)-benzooxazol-2-yl]-(3,4,5-trimethoxy-phenyl)-amine] are 167 to 170 °C and 99 nM.
Regarding `CNC(=O)c1ccc(-c2cccc3nc(Nc4cc(OC)c(OC)c(OC)c4)oc23)cc1` [Example 24, N-Methyl-4-[2-(3,4,5-trimethoxy-phenylamino)-benzooxazol-7-yl]-benzamide], the melting point is 258 to 259 °C. Also, the IC50 at GST-JAK2 stood at 79 nM. The IC50 at GST-JAK2(808-1132) was 19 nM.
Take `COc1ccc(-c2cccc3nc(Nc4cc(OC)c(OC)c(OC)c4)oc23)cn1` [Example 12, [7-(6-Methoxy-pyridin-3-yl)-benzooxazol-2-yl]-(3,4,5-trimethoxy-phenyl)-amine]: the melting point lay within 192 to 193 °C. In addition, on GST-JAK2, the IC50 came to 670 nM.
With `CNS(=O)(=O)c1ccc(-c2cccc3nc(Nc4cc(OC)c(OC)c(OC)c4)oc23)cc1` [Example 21, N-Methyl-4-[2-(3,4,5-trimethoxy-phenylamino)-benzooxazol-7-yl]-benzenesulfonamide], the melting point was in the range of 260 to 262 °C. Further, the IC50 at GST-JAK2 was determined as 16 nM. For the same compound, the half-maximal inhibitory concentration (IC50) on GST-JAK2(808-1132) amounted to 19 nM.
Compound `COc1cc(Nc2nc3cccc(-c4ccc(S(N)(=O)=O)cc4)c3o2)cc(OC)c1OC` [Example 18, 4-[2-(3,4,5-Trimethoxy-phenylamino)-benzooxazol-7-yl]-benzenesulfonamide] showed a melting point of 247 to 252 °C. In addition, on GST-JAK2, the IC50 was found to be 10 nM. The IC50 on GST-JAK2(808-1132) came to 10 nM.
The compound `COc1cc(Nc2nc3ccnc(-c4ccc(S(N)(=O)=O)cc4)c3o2)cc(OC)c1OC` [Example 38, 4-[2-(3,4,5-Trimethoxy-phenylamino)-oxazolo[5,4-c]pyridin-4-yl]-benzenesulfonamide] returned a melting point above 280 °C. For the same compound, the IC50 at GST-JAK2 turned out to be 450 nM. In addition, the IC50 on GST-JAK2(808-1132) was 310 nM.
In the case of `COc1cc(Nc2nc3cccc(-c4cccnc4)c3o2)cc(OC)c1OC` [Example 3, (7-Pyridin-3-yl-benzooxazol-2-yl)-(3,4,5-trimethoxy-phenyl)-amine], the melting point was in the range of 165 to 170 °C. Further, the IC50 on GST-JAK2 was 583 nM.
In the same order, the values of `COc1cccc(-c2cccc3nc(Nc4ccc(N5CCOCC5)cc4)oc23)c1` [Example 39, [7-(3-Methoxy-phenyl)-benzooxazol-2-yl]-(4-morpholin-4-yl-phenyl)-amine] are 180 to 182 °C and 1200 nM.
For `COc1cc(Nc2nc3cccc(-c4cccc(Cl)c4)c3o2)cc(OC)c1OC` [Example 9, [7-(3-Chloro-phenyl)-benzooxazol-2-yl]-(3,4,5-trimethoxy-phenyl)-amine] the same measures were 199 to 201 °C and 590 nM.
In the same order, the values of `COc1cc(Nc2nc3cccc(-c4ccn[nH]4)c3o2)cc(OC)c1OC` [Example 20, [7-(2H-Pyrazol-3-yl)-benzooxazol-2-yl]-(3,4,5-trimethoxy-phenyl)-amine] are 185 to 189 °C and 1000 nM.
As for `COc1cc(Nc2nc3cccc(-c4ccc(C)c(N)c4)c3o2)cc(OC)c1OC` [Example 13, [7-(3-Amino-4-methyl-phenyl)-benzooxazol-2-yl]-(3,4,5-trimethoxy-phenyl)-amine], the melting point is 188 to 190 °C. For the same compound, the IC50 at GST-JAK2 was 174 nM.
For `COc1cc(Nc2nc3cccc(-c4ccc(N)cc4)c3o2)cc(OC)c1OC` [Example 11, [7-(4-Amino-phenyl)-benzooxazol-2-yl]-(3,4,5-trimethoxy-phenyl)-amine], the melting point was in the range of 192 to 196 °C. Besides, at GST-JAK2, the IC50 was 147 nM.
The compound `COc1ccccc1-c1cccc2nc(Nc3cc(OC)c(OC)c(OC)c3)oc12` [Example 5, [7-(2-Methoxy-phenyl)-benzooxazol-2-yl]-(3,4,5-trimethoxy-phenyl)-amine] had a melting point of 185 to 187 °C. For the same compound, at GST-JAK2, the IC50 is 150 nM.
In the same order, the values of `COc1cc(Nc2nc3cccc(-c4ccc(S(=O)(=O)N5CCOCC5)cc4)c3o2)cc(OC)c1OC` [Example 23, {7-[4-(Morpholine-4-sulfonyl)-phenyl]-benzooxazol-2-yl}-(3,4,5-trimethoxy-phenyl)-amine] are 201 to 203 °C and 190 nM.
In the same order, the values of `COc1cc(Nc2nc3cccc(-c4cccc(CN)c4)c3o2)cc(OC)c1OC` [Example 32, [7-(3-Aminomethyl-phenyl)-benzooxazol-2-yl]-(3,4,5-trimethoxy-phenyl)-amine] are 145 to 150 °C and 270 nM.
In the same order, the values of `COc1cc(Nc2nc3cccc(-c4cccc(CNC(C)=O)c4)c3o2)cc(OC)c1OC` [Example 33, N-{3-[2-(3,4,5-Trimethoxy-phenylamino)-benzooxazol-7-yl]-benzyl}-acetamide] are 203 to 204 °C and 290 nM.

These data come from patent US8629168B2, “Benzoxazoles and oxazolopyridines being useful as janus kinases inhibitors” (priority 2006, dated 2014).
